Results reported in PubChem BioAssay (NCI).
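48-hour exposure; five concentrations; linearly interpolated endpoints. TGI: concentration producing complete growth inhibition.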

Key:
Assay in all cases: inhibition of tumour cell growth, NCI panel, 48 h
[1] = test system: 786-0 renal
[2] = test system: A498 renal
[3] = test system: A549 NSCLC
[4] = test system: ACHN renal
[5] = test system: CAKI-1 renal
[6] = test system: CCRF-CEM leukemia
[7] = test system: COLO 205 colon
[8] = test system: DLD-1 colon
[9] = test system: DMS 114 small cell lung
[10] = test system: DMS 273 small cell lung
[11] = test system: EKVX NSCLC
[12] = test system: HCC-2998 colon
[13] = test system: HCT-116 colon
[14] = test system: HCT-15 colon
[15] = test system: HL-60(TB) leukemia
[16] = test system: HOP-18 NSCLC
[17] = test system: HOP-62 NSCLC
[18] = test system: HOP-92 NSCLC
[19] = test system: HT29 colon
[20] = test system: IGROV1 ovarian
[21] = test system: K-562 leukemia
[22] = test system: KM12 colon
[23] = test system: KM20L2 colon
[24] = test system: LOX IMVI melanoma
[25] = test system: LXFL 529 NSCLC
[26] = test system: M14 melanoma
[27] = test system: M19-MEL melanoma
[28] = test system: MALME-3M melanoma
[29] = test system: MOLT-4 leukemia
[30] = test system: NCI-H23 lung
[31] = test system: NCI-H460 lung
[32] = test system: NCI-H522 lung
[33] = test system: OVCAR-3 ovarian
[34] = test system: OVCAR-5 ovarian
[35] = test system: OVCAR-8 ovarian
[36] = test system: RPMI-8226 leukemia
[37] = test system: RXF 393 renal
[38] = test system: SF-268 CNS
[39] = test system: SF-295 CNS
[40] = test system: SF-539 CNS
[41] = test system: SK-MEL-2 melanoma
[42] = test system: SK-MEL-5 melanoma
[43] = test system: SK-OV-3 ovarian
[44] = test system: SN12C renal
[45] = test system: SNB-19 CNS
[46] = test system: SNB-75 CNS
[47] = test system: SNB-78 CNS
[48] = test system: SW-620 colon
[49] = test system: TK-10 renal
[50] = test system: U251 CNS
[51] = test system: UACC-257 melanoma
[52] = test system: UACC-62 melanoma
[53] = test system: UO-31 renal
[54] = test system: XF 498 CNS
[55] = test system: NCI-H226 lung
[56] = test system: OVCAR-4 ovarian
[57] = test system: SK-MEL-28 melanoma
[58] = test system: SR leukemia
[59] = test system: RXF-631 renal

Cc1nc2c(o1)C(=Nc1ccccc1)c1ccccc1C2=O
TGI [1]: 28.5 µM | TGI [2]: 54.4 µM | TGI [3]: 38.3 µM | TGI [4]: 19.6 µM | TGI [5]: 36.7 µM | TGI [6]: 45.9 µM | TGI [7]: 29.7 µM | TGI [8]: 32 µM | TGI [9]: 8.57 µM | TGI [10]: 23.2 µM | TGI [11]: 27.1 µM | TGI [12]: 32.9 µM | TGI [13]: 23.2 µM | TGI [14]: 22.6 µM | TGI [15]: 66.1 µM | TGI [16]: 18 µM | TGI [17]: 28.1 µM | TGI [18]: 25.9 µM | TGI [19]: 35.9 µM | TGI [20]: 40.1 µM | TGI [21]: > 100 µM | TGI [22]: 30.9 µM | TGI [23]: 31.2 µM | TGI [24]: 12.1 µM | TGI [25]: 24.1 µM | TGI [26]: 21.4 µM | TGI [27]: 3.65 µM | TGI [28]: 12.3 µM | TGI [29]: 48.3 µM | TGI [30]: 5.25 µM | TGI [31]: 25.5 µM | TGI [32]: 15.8 µM | TGI [33]: 6.21 µM | TGI [34]: 32.4 µM | TGI [35]: 13.4 µM | TGI [36]: 38.1 µM | TGI [37]: 44 µM | TGI [38]: 24 µM | TGI [39]: 30.8 µM | TGI [40]: 16.7 µM | TGI [41]: 18.9 µM | TGI [42]: 5.78 µM | TGI [43]: 28 µM | TGI [44]: 22.8 µM | TGI [45]: 23.7 µM | TGI [46]: 23.6 µM | TGI [47]: 37.6 µM | TGI [48]: 23.2 µM | TGI [49]: 69.9 µM | TGI [50]: 9.4 µM | TGI [51]: 19.5 µM | TGI [52]: 11 µM | TGI [53]: 20.6 µM | TGI [54]: 12.5 µM

O=C(/C=C/c1ccco1)c1ccc(NCc2nc3ccccc3[nH]2)cc1
TGI [1]: 32.5 µM | TGI [2]: 27.5 µM | TGI [4]: 38.4 µM | TGI [5]: 49.9 µM | TGI [6]: 33.5 µM | TGI [7]: 26.7 µM | TGI [8]: 32.4 µM | TGI [9]: 26 µM | TGI [10]: 35.8 µM | TGI [11]: 29.9 µM | TGI [12]: 27.7 µM | TGI [14]: 30.3 µM | TGI [15]: 30.6 µM | TGI [16]: 44.5 µM | TGI [17]: 35.6 µM | TGI [18]: 30.6 µM | TGI [19]: 38.3 µM | TGI [20]: 34.1 µM | TGI [21]: 40.9 µM | TGI [22]: 22.6 µM | TGI [23]: 35.1 µM | TGI [24]: 29.8 µM | TGI [25]: 28.5 µM | TGI [26]: 30.9 µM | TGI [27]: 29.4 µM | TGI [28]: 33.2 µM | TGI [29]: 31.9 µM | TGI [55]: 13.8 µM | TGI [30]: 27.5 µM | TGI [31]: > 100 µM | TGI [32]: 21.4 µM | TGI [33]: 31.1 µM | TGI [56]: 56.6 µM | TGI [34]: 31.5 µM | TGI [35]: 47.8 µM | TGI [38]: 46.4 µM | TGI [39]: 31.1 µM | TGI [40]: 33.2 µM | TGI [41]: 34.9 µM | TGI [57]: 33.8 µM | TGI [42]: 28.6 µM | TGI [43]: 43.3 µM | TGI [44]: 32 µM | TGI [45]: 30.6 µM | TGI [46]: 31.1 µM | TGI [47]: 58.4 µM | TGI [58]: 37.7 µM | TGI [48]: 34.3 µM | TGI [49]: 39.1 µM | TGI [50]: 23.8 µM | TGI [51]: 23.2 µM | TGI [52]: 30.2 µM | TGI [53]: 27.3 µM

NC(=O)c1c([N+](=O)[O-])cc(C(F)(F)F)cc1[N+](=O)[O-]
TGI [1]: > 100 µM | TGI [2]: > 100 µM | TGI [3]: > 100 µM | TGI [4]: > 100 µM | TGI [5]: > 100 µM | TGI [7]: 62.7 µM | TGI [8]: > 100 µM | TGI [9]: 73.3 µM | TGI [10]: > 100 µM | TGI [11]: > 100 µM | TGI [12]: > 100 µM | TGI [13]: > 100 µM | TGI [15]: 47.4 µM | TGI [16]: > 100 µM | TGI [17]: > 100 µM | TGI [18]: > 100 µM | TGI [19]: > 100 µM | TGI [20]: > 100 µM | TGI [21]: > 100 µM | TGI [22]: > 100 µM | TGI [23]: 93.5 µM | TGI [24]: > 100 µM | TGI [25]: > 100 µM | TGI [26]: > 100 µM | TGI [28]: 52.1 µM | TGI [29]: > 100 µM | TGI [55]: > 100 µM | TGI [30]: 98.9 µM | TGI [31]: > 100 µM | TGI [32]: > 100 µM | TGI [33]: 63.3 µM | TGI [56]: > 100 µM | TGI [34]: > 100 µM | TGI [35]: > 100 µM | TGI [36]: > 100 µM | TGI [37]: > 100 µM | TGI [38]: > 100 µM | TGI [39]: > 100 µM | TGI [40]: > 100 µM | TGI [57]: > 100 µM | TGI [42]: > 100 µM | TGI [43]: > 100 µM | TGI [44]: > 100 µM | TGI [45]: > 100 µM | TGI [46]: > 100 µM | TGI [47]: > 100 µM | TGI [58]: > 100 µM | TGI [48]: > 100 µM | TGI [49]: > 100 µM | TGI [50]: > 100 µM | TGI [51]: 99.8 µM | TGI [52]: > 100 µM | TGI [53]: > 100 µM | TGI [54]: > 100 µM

O=C(NCCO)c1ccc([N+](=O)[O-])cc1
TGI [1]: > 100 µM | TGI [2]: > 100 µM | TGI [3]: > 100 µM | TGI [5]: > 100 µM | TGI [6]: > 100 µM | TGI [7]: > 100 µM | TGI [8]: > 100 µM | TGI [9]: > 100 µM | TGI [10]: > 100 µM | TGI [11]: > 100 µM | TGI [12]: > 100 µM | TGI [14]: > 100 µM | TGI [15]: > 100 µM | TGI [17]: > 100 µM | TGI [19]: > 100 µM | TGI [20]: > 100 µM | TGI [21]: > 100 µM | TGI [22]: > 100 µM | TGI [23]: > 100 µM | TGI [24]: > 100 µM | TGI [25]: > 100 µM | TGI [26]: > 100 µM | TGI [27]: > 100 µM | TGI [28]: > 100 µM | TGI [29]: > 100 µM | TGI [55]: > 100 µM | TGI [30]: > 100 µM | TGI [31]: > 100 µM | TGI [32]: > 100 µM | TGI [33]: > 100 µM | TGI [35]: > 100 µM | TGI [36]: > 100 µM | TGI [37]: > 100 µM | TGI [59]: > 100 µM | TGI [38]: > 100 µM | TGI [39]: > 100 µM | TGI [40]: > 100 µM | TGI [41]: > 100 µM | TGI [57]: > 100 µM | TGI [42]: > 100 µM | TGI [43]: > 100 µM | TGI [44]: > 100 µM | TGI [45]: > 100 µM | TGI [46]: > 100 µM | TGI [47]: > 100 µM | TGI [48]: > 100 µM | TGI [49]: > 100 µM | TGI [50]: > 100 µM | TGI [51]: > 100 µM | TGI [52]: > 100 µM | TGI [53]: > 100 µM | TGI [54]: > 100 µM
